Several values for one entry are separate records, joined by “and”; a condition that tells them apart may be missing. Identical values can stand only once.
How the values were obtained:
SAMP8 mice [1] = test: Open Field (OF); assay type: in vivo, mouse; settings: 0.32 or 0.96 mg/kg/day
Method: Both male and female mice from the senescence accelerated strain SAMP8 and its control SAMR1 of different ages (see Table S3 for details) were used in these studies. Mice were breed in the animal facilities of the Pharmacy Faculty (University of Barcelona), maintained in a at 22 ± 2 °C controlled temperature in a 12 hr light / dark cycle (lights on at 8:00 am; 300 lux/0 lux) with ad libitum access to food (2018 TEKLAD, Harlan) and water. Male mice were housed individually (males) or in groups of 4-5 animals (females) in plastic colony boxes with a sawdust bedding material. […] SAMR1 mice treated with vehicle were included as a control. […] Drug concentration was calculated weekly in function of body weight and corrected in function of drinking water consumption. Cognitive function was evaluated by NORT, social behavior was evaluated by RI and anxiety and motor function were evaluated by EPM and OF. […]
A 50 × 50-cm white plastic arena with 25-cm-high walls was used to analyze spontaneous exploratory behavior. […] The movements of each animal were video recorded during 5 min. Locomotor activity was analyzed by video-tracking over the captured images using SMART® (v 2.5.21 (rat) or v3.0 (mice), PanLab, SLU, Spain).
Novel Object Recognition Test (NORT): Time exploring the novel (NO) and the familiar object (FO) was measured and a discrimination Index (DI) was defined as (NO-FO)/(NO+FO). […]

[2] = tested on: COMT (catechol- O-methyl transferase); test: CEREP Diversity Panel; assay type: biochemical; set-up: dose or concentration left out as unconfirmed
Method: (§1) […]. MAO-A inhibition at 10 μM was 37%, in line with internal data.

ATPase (Na+/K+) = test: CEREP Diversity Panel; assay type: biochemical; set-up: dose or concentration left out as unconfirmed
Method: as §1

[3] = tested on: adenylyl cyclase (activator effect); test: CEREP Diversity Panel; assay type: biochemical; set-up: dose or concentration left out as unconfirmed
Method: as §1

CENP-E (h) = molecular target: T1, CENP-E (h) (Homo sapiens, UniProt Q02224); test: CEREP Diversity Panel; assay type: biochemical
T1 construct: purchased CEREP (Eurofins Cerep)
T1 sequence (Q02224 whole entry): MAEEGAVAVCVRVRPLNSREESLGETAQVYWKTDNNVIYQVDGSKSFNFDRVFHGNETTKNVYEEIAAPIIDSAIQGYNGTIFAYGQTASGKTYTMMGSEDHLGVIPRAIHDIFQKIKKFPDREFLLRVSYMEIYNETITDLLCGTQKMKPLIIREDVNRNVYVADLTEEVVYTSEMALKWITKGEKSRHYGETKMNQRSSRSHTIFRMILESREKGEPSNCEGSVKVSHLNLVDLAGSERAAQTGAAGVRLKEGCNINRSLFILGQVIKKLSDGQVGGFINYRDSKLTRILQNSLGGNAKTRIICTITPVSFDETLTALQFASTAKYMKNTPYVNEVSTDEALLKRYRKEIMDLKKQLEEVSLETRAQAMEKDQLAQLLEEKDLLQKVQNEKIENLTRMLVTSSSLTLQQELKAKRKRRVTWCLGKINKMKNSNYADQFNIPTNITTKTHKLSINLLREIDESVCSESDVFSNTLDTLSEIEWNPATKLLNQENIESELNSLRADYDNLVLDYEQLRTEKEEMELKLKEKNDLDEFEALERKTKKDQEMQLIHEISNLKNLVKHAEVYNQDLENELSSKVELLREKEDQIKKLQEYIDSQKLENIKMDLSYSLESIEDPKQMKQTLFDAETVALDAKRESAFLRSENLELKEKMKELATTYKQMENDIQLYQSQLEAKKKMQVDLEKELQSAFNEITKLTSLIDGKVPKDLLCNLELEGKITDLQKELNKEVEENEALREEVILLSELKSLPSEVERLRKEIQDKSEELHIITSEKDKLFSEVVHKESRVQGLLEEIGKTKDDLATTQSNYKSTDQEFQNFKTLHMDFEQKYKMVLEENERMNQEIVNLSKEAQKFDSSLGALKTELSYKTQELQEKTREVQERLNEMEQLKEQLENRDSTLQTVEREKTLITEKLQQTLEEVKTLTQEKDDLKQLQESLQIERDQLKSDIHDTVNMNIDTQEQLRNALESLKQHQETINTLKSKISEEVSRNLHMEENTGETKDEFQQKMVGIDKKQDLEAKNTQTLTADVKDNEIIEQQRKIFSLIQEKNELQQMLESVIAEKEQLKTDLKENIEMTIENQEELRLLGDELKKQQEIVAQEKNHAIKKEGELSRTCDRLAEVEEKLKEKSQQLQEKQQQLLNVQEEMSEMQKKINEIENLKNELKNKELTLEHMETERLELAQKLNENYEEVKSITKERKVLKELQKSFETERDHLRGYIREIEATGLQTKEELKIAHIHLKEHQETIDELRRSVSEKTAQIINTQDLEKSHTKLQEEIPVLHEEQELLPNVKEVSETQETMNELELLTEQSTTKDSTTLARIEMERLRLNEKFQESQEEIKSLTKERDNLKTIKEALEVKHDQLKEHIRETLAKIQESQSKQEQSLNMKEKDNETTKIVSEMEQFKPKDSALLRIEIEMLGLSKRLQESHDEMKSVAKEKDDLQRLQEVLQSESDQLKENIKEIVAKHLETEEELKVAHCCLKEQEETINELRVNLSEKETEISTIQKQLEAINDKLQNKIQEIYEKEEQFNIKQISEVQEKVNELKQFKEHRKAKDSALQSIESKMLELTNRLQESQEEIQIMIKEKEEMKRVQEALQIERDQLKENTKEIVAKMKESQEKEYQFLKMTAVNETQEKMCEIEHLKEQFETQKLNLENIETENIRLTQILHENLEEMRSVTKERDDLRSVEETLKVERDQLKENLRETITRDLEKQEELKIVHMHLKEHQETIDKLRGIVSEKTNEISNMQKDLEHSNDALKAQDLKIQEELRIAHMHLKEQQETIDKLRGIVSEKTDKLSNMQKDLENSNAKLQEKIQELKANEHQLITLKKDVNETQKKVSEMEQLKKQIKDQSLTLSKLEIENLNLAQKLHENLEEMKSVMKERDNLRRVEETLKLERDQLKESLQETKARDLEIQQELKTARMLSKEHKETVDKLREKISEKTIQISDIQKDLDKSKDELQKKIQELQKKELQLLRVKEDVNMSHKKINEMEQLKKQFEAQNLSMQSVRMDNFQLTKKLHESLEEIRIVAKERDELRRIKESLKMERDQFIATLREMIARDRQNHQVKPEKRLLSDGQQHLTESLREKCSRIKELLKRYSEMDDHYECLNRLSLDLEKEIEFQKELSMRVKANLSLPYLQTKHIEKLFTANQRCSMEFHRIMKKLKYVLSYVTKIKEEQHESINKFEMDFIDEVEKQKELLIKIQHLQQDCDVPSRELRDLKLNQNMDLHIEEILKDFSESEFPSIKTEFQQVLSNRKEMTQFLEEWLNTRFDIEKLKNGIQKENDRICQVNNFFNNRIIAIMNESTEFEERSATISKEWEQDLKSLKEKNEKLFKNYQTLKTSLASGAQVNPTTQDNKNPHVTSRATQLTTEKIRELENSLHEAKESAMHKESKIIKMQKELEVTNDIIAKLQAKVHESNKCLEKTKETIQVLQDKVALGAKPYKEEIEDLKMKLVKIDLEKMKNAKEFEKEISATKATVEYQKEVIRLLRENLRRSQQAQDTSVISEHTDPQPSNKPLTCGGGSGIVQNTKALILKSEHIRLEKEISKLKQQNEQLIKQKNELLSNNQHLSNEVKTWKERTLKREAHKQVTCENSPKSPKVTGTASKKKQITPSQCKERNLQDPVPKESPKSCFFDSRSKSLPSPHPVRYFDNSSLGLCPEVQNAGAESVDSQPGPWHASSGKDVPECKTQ
Method: as §1

PDE2A1 (h) = PDE2A1 (h) (Homo sapiens, UniProt O00408); test: CEREP Diversity Panel; assay type: biochemical
Sequence of PDE2A1 (h) (O00408 49-941 limits assumed): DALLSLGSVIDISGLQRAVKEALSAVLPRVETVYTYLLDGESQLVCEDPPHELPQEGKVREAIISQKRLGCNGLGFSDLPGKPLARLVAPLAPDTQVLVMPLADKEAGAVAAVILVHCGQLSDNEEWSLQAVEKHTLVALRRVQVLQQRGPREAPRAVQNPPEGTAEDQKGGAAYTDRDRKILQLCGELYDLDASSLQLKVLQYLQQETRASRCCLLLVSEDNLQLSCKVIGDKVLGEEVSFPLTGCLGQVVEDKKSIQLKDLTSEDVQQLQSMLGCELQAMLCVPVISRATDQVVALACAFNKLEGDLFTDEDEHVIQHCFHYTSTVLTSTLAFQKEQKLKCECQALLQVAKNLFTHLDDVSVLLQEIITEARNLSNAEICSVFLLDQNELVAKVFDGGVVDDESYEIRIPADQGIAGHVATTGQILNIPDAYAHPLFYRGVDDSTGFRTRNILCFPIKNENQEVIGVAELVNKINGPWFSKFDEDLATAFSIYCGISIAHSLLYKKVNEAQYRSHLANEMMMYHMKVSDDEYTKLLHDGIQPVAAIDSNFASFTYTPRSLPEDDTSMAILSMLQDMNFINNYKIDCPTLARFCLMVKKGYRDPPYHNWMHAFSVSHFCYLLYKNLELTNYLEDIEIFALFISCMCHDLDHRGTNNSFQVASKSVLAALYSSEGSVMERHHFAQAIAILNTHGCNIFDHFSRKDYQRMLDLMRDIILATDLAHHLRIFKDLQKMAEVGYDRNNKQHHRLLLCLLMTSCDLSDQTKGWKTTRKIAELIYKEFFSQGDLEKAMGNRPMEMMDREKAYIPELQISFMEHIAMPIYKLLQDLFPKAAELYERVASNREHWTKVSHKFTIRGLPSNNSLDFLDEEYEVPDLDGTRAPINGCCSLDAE
Method: as §1

phosphatase CDC25A (h) = molecular target: T2, phosphatase CDC25A (h) (Homo sapiens, UniProt P30304); test: CEREP Diversity Panel; assay type: biochemical
T2 construct: purchased CEREP (Eurofins Cerep)
Method: as §1

[4] = molecular target: T3, phosphatase 1B (h) (PTP1B) (Homo sapiens, UniProt P18031); test: CEREP Diversity Panel; assay type: biochemical
T3 construct: purchased CEREP (Eurofins Cerep)
T3 sequence (P18031 whole entry): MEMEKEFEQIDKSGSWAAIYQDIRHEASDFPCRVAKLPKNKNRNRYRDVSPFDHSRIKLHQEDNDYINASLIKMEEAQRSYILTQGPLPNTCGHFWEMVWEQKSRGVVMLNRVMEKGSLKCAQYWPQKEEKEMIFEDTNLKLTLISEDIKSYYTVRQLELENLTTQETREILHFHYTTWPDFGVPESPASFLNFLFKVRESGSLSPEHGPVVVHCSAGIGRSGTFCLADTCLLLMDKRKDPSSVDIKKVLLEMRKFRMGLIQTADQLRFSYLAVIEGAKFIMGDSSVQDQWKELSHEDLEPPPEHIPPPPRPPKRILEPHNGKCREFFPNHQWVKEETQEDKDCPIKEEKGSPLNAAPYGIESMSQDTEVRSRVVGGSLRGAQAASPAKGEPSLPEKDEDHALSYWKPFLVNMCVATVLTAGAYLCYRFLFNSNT
Method: as §1

PDE3A (h) = molecular target: T4, PDE3A (h) (Homo sapiens, UniProt Q14432); test: CEREP Diversity Panel; assay type: biochemical
T4 construct: purchased CEREP (Eurofins Cerep)
Method: as §1

acetylcholinesterase (h) = molecular target: T5, acetylcholinesterase (h) (Homo sapiens, UniProt P22303); test: CEREP Diversity Panel; assay type: biochemical
T5 construct: purchased CEREP (Eurofins Cerep)
T5 sequence (P22303 32-614): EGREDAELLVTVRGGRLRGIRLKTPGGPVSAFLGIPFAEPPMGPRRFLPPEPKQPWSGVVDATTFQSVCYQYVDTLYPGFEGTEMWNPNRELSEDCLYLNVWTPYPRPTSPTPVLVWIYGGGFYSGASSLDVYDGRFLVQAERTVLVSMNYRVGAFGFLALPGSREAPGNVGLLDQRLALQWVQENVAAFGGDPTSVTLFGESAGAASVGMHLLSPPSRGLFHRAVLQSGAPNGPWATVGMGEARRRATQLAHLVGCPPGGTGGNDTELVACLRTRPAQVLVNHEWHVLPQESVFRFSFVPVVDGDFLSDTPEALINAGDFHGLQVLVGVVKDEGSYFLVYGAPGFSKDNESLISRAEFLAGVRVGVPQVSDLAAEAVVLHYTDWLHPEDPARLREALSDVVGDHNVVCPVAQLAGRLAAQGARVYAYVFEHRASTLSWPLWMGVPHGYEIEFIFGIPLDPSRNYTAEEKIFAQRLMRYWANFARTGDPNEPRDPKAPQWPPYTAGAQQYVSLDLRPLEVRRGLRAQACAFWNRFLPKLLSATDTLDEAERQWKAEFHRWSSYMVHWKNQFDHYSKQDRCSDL
Method: as §1

SAMP8 mice [5] = test: Three Chamber Test (TCT); assay type: in vivo, mouse; settings: 0.96 mg/kg/day
Method: Both male and female mice from the senescence accelerated strain SAMP8 and its control SAMR1 of different ages (see Table S3 for details) were used in these studies. Mice were breed in the animal facilities of the Pharmacy Faculty (University of Barcelona), maintained in a at 22 ± 2 °C controlled temperature in a 12 hr light / dark cycle (lights on at 8:00 am; 300 lux/0 lux) with ad libitum access to food (2018 TEKLAD, Harlan) and water. Male mice were housed individually (males) or in groups of 4-5 animals (females) in plastic colony boxes with a sawdust bedding material. […] SAMR1 mice treated with vehicle were included as a control. All drugs were administered via drinking water and diluted in vehicle. Drug concentration was calculated weekly in function of body weight and corrected in function of drinking water consumption. Cognitive function was evaluated by NORT, social behavior was evaluated by RI and anxiety and motor function were evaluated by EPM and OF. […]
The test was performed in a Plexiglas transparent box with three identical consecutive chambers (15 x 15 x 20 cm). […] This habituation time was monitored to avoid animals showing preference for one of the chambers. […] The time spent in each chamber and the time of direct exploration of the novel mice was measured.
Three Chamber Test (TCT): Mice were recorded for 5 min during habituation and an additional X min to run the test. […]

KDM1A = KDM1A (Homo sapiens, UniProt O60341); test: Chemoprobe based KDM1A target engagement in THP-1 cells; assay type: cell-based; set-up: Native protein extracts of cells or tissues were obtained in presence of 25 nM OG-881 chemoprobe; endogenous in cells; host or cells: THP-1; settings: THP-1 cells treated 24 hr
Method: Native protein extracts of cells or tissues were obtained in presence of 25 nM OG-881 chemoprobe according the protocol described in Mascaró et al..
Luminescent ELISA: for quantification of total amount of KDM1A protein (TOTAL KDM1A), Luminunc Plates Maxisorp (NUNC; #436110) were coated with a monoclonal anti-KDM1A antibody (Abcam; #ab53269) at 2 µg/mL in PBS. For quantification of the fraction not bound to inhibitor (FREE KDM1A), plates were coated with streptavidin (Promega Biotech Ibérica; #Z7041) at 10 µg/mL in PBS. Coating was performed at 4°C O/N. Wells were washed 3 times in PBS, 0.1% Tween-20 and blocked with PBS-BSA 1% (Sigma; #A3059) for 2 hr. A KDM1A calibration curve of full length rKDM1A (Active Motif; #31334) diluted in PBS was included in each plate. Plates were then incubated 1 hr at RT and washed 5 times. […] Plates were centrifuged during 30 sec to 1,500 x g, shaken for 1 min at 100rpm and incubated inside the micropate reader (Infinite 200, Tecan) for 3 min at 25 °C. The relative luminescence units (RLU) readouts were acquired using a 1000 msec integration time and 150 msec settle time.
All assays were run as triplicate technical replicates (n = 3). After raw data processing (robust elimination of outliers according to Grubbs criteria and subtraction of blank signal on technical replicates), the target engagement was calculated as […]

In the case of `Nc1nnc(CN[C@@H]2C[C@H]2c2ccc(OCc3ccccc3)cc2)o1` [ORY-2001, vafidemstat], the “locomotor activity in the OF test” value (SAMP8 mice [1]) is reported as “no significant genotype or treatment differences”, the “% inhibition” value [2] is reported as 11% and the “% inhibition” value (ATPase (Na+/K+)) is reported as 4%. The “% inhibition” value [3] was 0%, the inhibition at 10 µM (CENP-E (h)) was 3% and the inhibition at 10 µM (PDE2A1 (h)) was -2%. For the same compound, the inhibition at 10 µM (phosphatase CDC25A (h)) was 5%, the inhibition at 10 µM [4] was 2% and the inhibition at 10 µM (PDE3A (h)) was 1%. For the same compound, the inhibition at 10 µM (acetylcholinesterase (h)) was -4%, the “time exploring mice introduced in the cage” value (SAMP8 mice [5]; 12 month old female) was “restored the time SAMP8 spent exploring mice” and the “preference for the chamber with the novel mice” value (SAMP8 mice [5]; female) was “restored the normal preference”. The EC50 (KDM1A) was ~1 nM and 1 nM.

Source: publication PMC7259601 (PLoS ONE, 2020)
